# Laboratory results reported in patent US10064844B2, “Pharmaceutical compositions comprising an aromatse inhibitors” (MEREO BIOPHARMA 2 LIMITED, priority 2011, dated 2018).
# What was measured:
# [1] = Solid state properties of the drug substance (hygroscopicity, water solubility); format: physicochemical; settings: crystalline powder
# [2] = Single ascending dose study in women: safety and tolerability; format: in vivo
# Source text: (§1) A […] (MTD) was not reached. […] Table 4 presents the PK parameters based on preliminary analysis of the concentration-time profile obtained from this study.
# (§2) There were no changes in bone density by DEXA after 6 months.
# [3] = system: other enzymes involved in steroid hormone synthesis or metabolism; assay: Single ascending dose study in women: other steroid hormone enzymes and hormone levels; format: in vivo, human; settings: single doses
# [4] = system: androstenedione-induced uterine hypertrophy; assay: Inhibition of androstenedione-induced uterine hypertrophy in rats (aromatase dependent model); format: in vivo; settings: Rattus norvegicus
# [5] = system: DMBA-induced mammary tumors; assay: Inhibition of DMBA-induced mammary tumors in rats (aromatase dependent model); format: in vivo; settings: Rattus norvegicus
# [6] = Pharmacokinetics after oral administration to rats; format: in vivo
# [7] = Single ascending dose study in pre- and post-menopausal women: pharmacokinetics; format: in vivo, human
# Source text: as §1
# [8] = system: estrone, estrone sulfate and estradiol; assay: Single ascending dose study in women: pharmacodynamics (estrogen suppression); format: in vivo, human
# Experimental: Patients received either 0.1 mg, 1 mg, and 10 mg drug substance containing hard gelatin capsules as described in Example 2 or appropriate matching placebo capsules.
# as §1, §2
compound,measurement,setting,value
"N#Cc1ccc(C(F)(c2ccc(C#N)cc2)n2cncn2)cc1 [CGP47645, 4,4′-[fluoro-(1-H-1,2,4-triazol-1-yl)methylene]bisbenzonitrile]",solubility in water,[1],poorly soluble in water
same,changes in bone density by DEXA,[2]; in vivo,no changes
same,minimal toxic dose (MTD),"[2]; single doses 0.01 mg through 20 mg, women",not reached
same,inhibition of other enzymes involved in steroid hormone synthesis or metabolism,[3],No inhibition
same,ED50,[4],3 µg/kg
same,ED50,[5],10 µg/kg
same,exposure expressed as AUC versus dose,[6],proportional to the administered dose
same,difference in pharmacokinetics between post- and pre-menopausal women,[7]; 0.1 mg cohorts,No differences
same,Tmax,"[7]; female, human, in vivo",0.5 to 2 h
same,half-life,"[7]; female, human, in vivo",552 to 648 h
same,median Tmax,"[7]; female, human, in vivo",≤ 1 h
same,"AUC(0-tlast), mean","[7]; female, human, in vivo, 0.1 mg",116.2 ng·h/mL
same,"Cmax, mean","[7]; female, human, in vivo, 0.1 mg",1.7 ng/mL
same,"T1/2, mean","[7]; female, human, in vivo, 1 mg",538 h
same,"T1/2, mean","[7]; female, human, in vivo, 20 mg",646 h
same,Tmax,"[7]; female, human, in vivo, po, 0.03 mg",0.6 h
same,dose proportionality of pharmacokinetics (Cmax & AUC),"[7]; human, in vivo",dose proportional pharmacokinetics
same,half life in humans compared with letrozole,"[7]; human, in vivo",longer half life in humans than does letrozole
same,inter-subject variability,"[7]; single doses, women",10-30%
same,lowest single dose at which maximal estrogen suppression was observed,"[8]; post-menopausal women, chemiluminescence or radioimmunoassay",0.1 mg
same,lowest single dose at which transient estrogen suppression was seen,[8]; postmenopausal women,0.01 mg
